Assay [1] concerns the target T1, PI3Kδ (Homo sapiens, UniProt O00329).
T1 construct: purchased Millipore 14-604
The assay is described as follows: Inhibitory activity to PI3K δ, PI 3-Kinase (human) HTRF Assay kit. The format is biochemical. The procedure, abridged: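 Inhibition of human PI3Kδ was assessed with the Millipore PI 3-Kinase (human) HTRF Assay kit. PI3Kδ was screened at 2 ng/well, diluted in 2×PIP2 operating fluid. Reactions were 20 μL and contained 100 μM ATP. Stop solution was Stop A and Stop B mixed 3:1. Detection solution was DM C, DM A and DM B mixed 18:1:1. Compounds were prepared from DMSO stocks, and percent inhibition was reported.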
For orientation: TR-FRET usually uses a lanthanide donor and a delayed reading to cut background.

The test system of assay [2] is PC-3 human prostate cancer cell strain. The assay is described as follows: Antitumor cell proliferation in vitro, CCK-8 detection kit, PC-3. The format is cell-based. To be noted: Homo sapiens, PC-3, 72 h, PC-3 cells, 1st and 2nd test where printed. How it is done: The half inhibitory concentration IC50 of proliferation of three kinds of tumor cell strain (U87MG, PC-3, BT474) for 12 candidate compounds of the present invention is detected by CCK-8 detection kits.
PC-3 human prostate cancer cell strain (cell bank of Chinese Academy of Sciences)
The studied compounds are dissolved by DMSO to make the final concentration 10 mM.
• a) Collecting the cells in logarithmic phase, counting, and resuspending the cells with complete medium. • b) Adjusting the concentration of cells to a suitable concentration, inoculating in 96 well plates, each well is inoculated to 100 μl cell suspension.
c) incubating cells for 24 hours in a 5% CO2 incubator at temperature of 37° C., under the condition of 100% relative humidity.
a) The cells in logarithmic phase is collected, counted, resuspended with complete medium. The concentration of cells is adjusted to a suitable concentration (determined in accordance with the optimizable test results of cell density), and the cells is inoculated in 96 well plates, wherein each well is inoculated 100 μl cell suspension, Cells are incubated for 24 hours in 5% CO2 incubator at temperature of 37° C. under the condition of 100% relative humidity.
b) The test compounds are diluted to 500 μM with culture medium, then diluted in series eight times. […] as 25 μl/well. The final concentrations of the compounds are diluted from 100 μM to 0 μM, with 4 times dilution, and there are a total of 10 concentration points.
c) Cells are incubated for 72 hours in 5% CO2 incubator at temperature of 37° C. under the condition of 100% relative humidity.
d) The culture medium is aspirated and discarded, and complete medium containing 10% CCK-8 is incubated in a incubator at 37° C. for 2˜4 hours.
e) After shocking gently, the absorbance of the culture medium is measured at 450 nm wavelength on SpectraMax M5 Microplate Reader, with the absorbance at 650 nm as reference, to calculate the inhibition rate.
On the technique in general: Formazan colour is commonly taken as a measure of viable cells.

Assay [3] addresses T2, PI3K α (Homo sapiens, UniProt P42336).
T2 construct: purchased Millipore 14-602
In words: Inhibitory activity to PI3K α, PI 3-Kinase (human) HTRF Assay kit. The format is biochemical. To be noted: read-out: % Inhibition Rate to PI3K α. The procedure, abridged: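 HTRF assay using human PI3Kα at 8 ng/well, 100 μM ATP and PIP2 (2× working stock 20 μM) in 20 μL reaction containing 1% DMSO. Screened at 10 μM and 1 μM for percent inhibition, with selected compounds then taken to IC50 determination.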

Assay [4] concerns the target T3, PI3 K γ (Homo sapiens, UniProt P48736).
T3 construct: purchased Biology, Medicilon
The assay is described as follows: Inhibitory activity to PI3K γ, PI 3-Kinase (human) HTRF Assay kit. Format: biochemical. Conditions: for Inhibition rate % to PI3 K γ: dihydrate di-methanesulfonate. The procedure, abridged:
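HTRF kinase assay with PI3Kγ at 80 ng/well, 10 μM PIP2 and 100 μM ATP (both final) in DTT-containing reaction buffer, 1% DMSO. Preliminary screen at 10 μM and 1 μM compound, followed by IC50 determination for selected compounds.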

Setting [5] is: 10 μM (Table 7), read-out: Inhibition rate % to PI3Kδ.

Counter-ions that a name gives are not always drawn. Like-named read-outs stand apart in the source and are kept apart here.

By IC50 is commonly meant the concentration that gives 50% inhibition. Higher therefore signals lower potency.

T3 sequence (P48736 whole entry): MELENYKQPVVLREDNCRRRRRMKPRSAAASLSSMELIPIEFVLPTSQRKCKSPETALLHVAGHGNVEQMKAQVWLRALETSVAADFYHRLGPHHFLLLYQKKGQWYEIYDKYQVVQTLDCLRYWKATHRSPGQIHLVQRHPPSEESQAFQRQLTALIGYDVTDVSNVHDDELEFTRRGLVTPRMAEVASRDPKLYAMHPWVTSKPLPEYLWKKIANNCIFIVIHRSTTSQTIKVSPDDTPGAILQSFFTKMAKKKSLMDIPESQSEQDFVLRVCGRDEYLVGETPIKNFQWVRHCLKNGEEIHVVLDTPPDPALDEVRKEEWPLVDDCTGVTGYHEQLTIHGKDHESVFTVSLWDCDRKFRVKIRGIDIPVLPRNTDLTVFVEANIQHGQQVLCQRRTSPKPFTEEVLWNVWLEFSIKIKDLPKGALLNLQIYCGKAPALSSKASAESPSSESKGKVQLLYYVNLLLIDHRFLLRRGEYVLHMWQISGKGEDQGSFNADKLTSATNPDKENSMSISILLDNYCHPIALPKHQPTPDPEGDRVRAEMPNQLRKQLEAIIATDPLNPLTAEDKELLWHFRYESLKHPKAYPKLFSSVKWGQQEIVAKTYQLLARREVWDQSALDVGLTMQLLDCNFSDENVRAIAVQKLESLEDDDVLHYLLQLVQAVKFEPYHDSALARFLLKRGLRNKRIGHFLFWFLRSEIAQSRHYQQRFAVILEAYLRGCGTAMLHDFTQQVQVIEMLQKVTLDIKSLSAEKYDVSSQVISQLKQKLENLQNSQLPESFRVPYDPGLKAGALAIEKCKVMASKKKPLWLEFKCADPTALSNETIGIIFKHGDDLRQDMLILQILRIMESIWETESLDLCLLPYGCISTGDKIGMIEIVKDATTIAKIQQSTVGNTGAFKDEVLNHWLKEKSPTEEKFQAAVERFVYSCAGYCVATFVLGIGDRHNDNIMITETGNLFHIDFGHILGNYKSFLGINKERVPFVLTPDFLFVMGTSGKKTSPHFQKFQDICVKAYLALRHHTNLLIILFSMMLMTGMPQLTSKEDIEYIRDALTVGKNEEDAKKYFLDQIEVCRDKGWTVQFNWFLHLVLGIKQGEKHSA
T2 sequence (P42336 whole entry): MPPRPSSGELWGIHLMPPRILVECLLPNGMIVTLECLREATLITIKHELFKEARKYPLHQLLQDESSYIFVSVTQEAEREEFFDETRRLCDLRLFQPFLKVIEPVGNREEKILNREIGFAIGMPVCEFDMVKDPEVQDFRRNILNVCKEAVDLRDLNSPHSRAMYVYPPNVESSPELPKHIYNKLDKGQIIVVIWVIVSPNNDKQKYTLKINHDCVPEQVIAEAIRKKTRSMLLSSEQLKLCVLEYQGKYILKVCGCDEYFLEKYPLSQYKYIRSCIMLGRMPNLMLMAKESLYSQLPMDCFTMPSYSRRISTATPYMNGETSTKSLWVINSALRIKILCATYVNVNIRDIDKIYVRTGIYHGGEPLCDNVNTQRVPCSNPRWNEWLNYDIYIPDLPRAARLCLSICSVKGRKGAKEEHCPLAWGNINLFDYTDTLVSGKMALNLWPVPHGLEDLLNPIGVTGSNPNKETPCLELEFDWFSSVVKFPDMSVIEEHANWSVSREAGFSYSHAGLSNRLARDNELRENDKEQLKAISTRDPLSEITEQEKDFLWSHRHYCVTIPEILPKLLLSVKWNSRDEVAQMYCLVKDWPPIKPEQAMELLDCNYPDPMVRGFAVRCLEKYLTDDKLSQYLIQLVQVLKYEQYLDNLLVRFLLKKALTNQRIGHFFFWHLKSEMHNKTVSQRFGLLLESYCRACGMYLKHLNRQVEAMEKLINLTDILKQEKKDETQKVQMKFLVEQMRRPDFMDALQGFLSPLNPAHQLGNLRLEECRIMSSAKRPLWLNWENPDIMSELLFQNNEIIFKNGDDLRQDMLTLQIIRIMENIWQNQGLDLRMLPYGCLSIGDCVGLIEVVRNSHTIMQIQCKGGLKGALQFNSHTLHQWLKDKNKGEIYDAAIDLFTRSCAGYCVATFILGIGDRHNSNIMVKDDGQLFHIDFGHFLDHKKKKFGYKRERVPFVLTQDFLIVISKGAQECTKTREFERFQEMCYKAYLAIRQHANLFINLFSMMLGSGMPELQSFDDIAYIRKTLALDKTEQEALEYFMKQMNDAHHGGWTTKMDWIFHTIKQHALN
T2 sequence (P27986 whole entry partner): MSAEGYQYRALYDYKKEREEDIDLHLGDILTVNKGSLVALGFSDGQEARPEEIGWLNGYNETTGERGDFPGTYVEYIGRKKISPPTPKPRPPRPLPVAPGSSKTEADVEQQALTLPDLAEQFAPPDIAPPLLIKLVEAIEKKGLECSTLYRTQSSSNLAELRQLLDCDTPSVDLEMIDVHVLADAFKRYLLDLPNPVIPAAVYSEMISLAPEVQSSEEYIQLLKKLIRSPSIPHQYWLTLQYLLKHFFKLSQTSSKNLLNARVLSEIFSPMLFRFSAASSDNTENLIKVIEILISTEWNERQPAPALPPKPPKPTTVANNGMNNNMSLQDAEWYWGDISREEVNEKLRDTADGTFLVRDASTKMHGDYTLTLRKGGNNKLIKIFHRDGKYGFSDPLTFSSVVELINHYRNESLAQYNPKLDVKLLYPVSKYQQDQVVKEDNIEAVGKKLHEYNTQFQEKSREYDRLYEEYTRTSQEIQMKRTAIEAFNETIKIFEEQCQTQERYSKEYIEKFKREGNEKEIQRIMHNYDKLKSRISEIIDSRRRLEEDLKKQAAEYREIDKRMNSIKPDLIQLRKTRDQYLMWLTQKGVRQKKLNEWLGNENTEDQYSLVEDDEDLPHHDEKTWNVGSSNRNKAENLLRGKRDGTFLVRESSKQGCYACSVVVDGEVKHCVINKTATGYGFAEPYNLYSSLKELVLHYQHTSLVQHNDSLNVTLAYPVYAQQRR
T1 sequence (O00329 whole entry): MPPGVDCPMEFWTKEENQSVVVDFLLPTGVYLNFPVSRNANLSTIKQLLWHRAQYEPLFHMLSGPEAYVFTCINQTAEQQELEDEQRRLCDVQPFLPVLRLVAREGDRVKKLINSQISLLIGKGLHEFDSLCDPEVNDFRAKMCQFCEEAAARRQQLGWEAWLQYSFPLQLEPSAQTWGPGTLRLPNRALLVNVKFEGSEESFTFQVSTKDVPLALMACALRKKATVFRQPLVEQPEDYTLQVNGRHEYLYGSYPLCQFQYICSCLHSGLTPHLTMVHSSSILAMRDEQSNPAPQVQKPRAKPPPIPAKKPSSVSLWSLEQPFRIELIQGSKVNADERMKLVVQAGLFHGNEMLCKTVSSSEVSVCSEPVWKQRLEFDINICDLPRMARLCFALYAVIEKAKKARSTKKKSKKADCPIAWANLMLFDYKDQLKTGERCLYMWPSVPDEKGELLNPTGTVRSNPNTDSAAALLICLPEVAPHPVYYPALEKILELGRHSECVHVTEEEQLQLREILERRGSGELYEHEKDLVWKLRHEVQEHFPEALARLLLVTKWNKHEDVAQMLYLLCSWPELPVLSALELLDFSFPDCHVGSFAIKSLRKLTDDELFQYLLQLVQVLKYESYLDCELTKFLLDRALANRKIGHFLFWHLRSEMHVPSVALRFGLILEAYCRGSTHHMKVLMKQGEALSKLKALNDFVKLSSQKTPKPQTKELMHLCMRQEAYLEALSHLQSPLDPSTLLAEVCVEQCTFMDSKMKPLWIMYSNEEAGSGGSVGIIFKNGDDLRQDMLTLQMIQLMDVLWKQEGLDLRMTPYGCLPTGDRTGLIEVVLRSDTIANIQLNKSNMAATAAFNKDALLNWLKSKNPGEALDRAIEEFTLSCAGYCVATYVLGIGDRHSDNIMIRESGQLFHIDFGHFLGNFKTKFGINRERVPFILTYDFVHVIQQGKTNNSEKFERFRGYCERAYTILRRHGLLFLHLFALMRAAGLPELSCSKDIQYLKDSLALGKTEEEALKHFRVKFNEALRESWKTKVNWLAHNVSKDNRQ
T1 sequence (P27986 whole entry partner): as the sequence (P27986 whole entry partner) above

Turning to `c1ccc(-c2ccnc3ccc(Nc4nc(NC5CC5)c5nc[nH]c5n4)cc23)cc1` [MED1007-91, N6-cyclopropyl-N2-(4-phenylquinoline-6-yl)-9H-purine-2,6-diammonium salt dihydrate di-methanesulfonate], in assay [1] (1 μM (Table 7), dihydrate di-methanesulfonate, 1 µM), the “Inhibition rate % to PI3Kδ” value was found to be 96.32%. Besides, the inhibition at 10 µM in assay [1] (setting [5]) is 115%; in assay [3], 124%. The IC50 in assay [2] worked out at 0.654 µM. Moreover, the inhibition at 1 µM in assay [3] came out at 97%. Moreover, the “Inhibition rate % to PI3 K γ” value in assay [4] (1 μM) came out at 29.82%; in assay [4] (10 μM), 81.29%.

As for `COC[C@H]1OC(=O)c2coc3c2[C@@]1(C)C1=C(C3=O)[C@@H]2CCC(=O)[C@@]2(C)C[C@H]1OC(C)=O` [Wortmannin, reference compound], in assay [1] (0.4 μM (Table 8), read-out: Inhibition rate % to PI3K delta), the inhibition at 0.4 µM was determined as 93.4%. The inhibition at 1 µM was 95.4% in assay [1] (1 μM (Table 7), read-out: Inhibition rate % to PI3Kδ); 109% in assay [3]; 105% in assay [4] (1 μM, read-out: Inhibition rate % to PI3 K γ). For the same compound, the inhibition at 10 µM in assay [1] (setting [5]) amounted to 108%; in assay [1] (10 μM (Table 8), read-out: Inhibition rate % to PI3K delta), 105%; in assay [3], 105%; in assay [4] (10 μM, read-out: Inhibition rate % to PI3 K γ), 101%. Further, the inhibition at 2 µM in assay [1] (read-out: Inhibition rate % to PI3K delta) was 109%. The IC50 in assay [2] was determined as 21.6 µM.

(Values after patent US9718823B2, “2, 6-Di-nitrogen-containing substituted purine derivative, and preparation method, pharmaceutical composition and use thereof” (Zhejiang Medicine Co., Ltd. Xinchang Pharmaceutical Factory, priority 2013, dated 2017).)
